Like-named read-outs stand apart in the source and are kept apart here.
Tests used:
COX II enzyme = molecular target: T1, COX II enzyme (Mus musculus, UniProt Q05769); details: J. Biol. Chem., 268, 6610 (1993); cited from earlier work
T1 sequence (Q05769 18-604): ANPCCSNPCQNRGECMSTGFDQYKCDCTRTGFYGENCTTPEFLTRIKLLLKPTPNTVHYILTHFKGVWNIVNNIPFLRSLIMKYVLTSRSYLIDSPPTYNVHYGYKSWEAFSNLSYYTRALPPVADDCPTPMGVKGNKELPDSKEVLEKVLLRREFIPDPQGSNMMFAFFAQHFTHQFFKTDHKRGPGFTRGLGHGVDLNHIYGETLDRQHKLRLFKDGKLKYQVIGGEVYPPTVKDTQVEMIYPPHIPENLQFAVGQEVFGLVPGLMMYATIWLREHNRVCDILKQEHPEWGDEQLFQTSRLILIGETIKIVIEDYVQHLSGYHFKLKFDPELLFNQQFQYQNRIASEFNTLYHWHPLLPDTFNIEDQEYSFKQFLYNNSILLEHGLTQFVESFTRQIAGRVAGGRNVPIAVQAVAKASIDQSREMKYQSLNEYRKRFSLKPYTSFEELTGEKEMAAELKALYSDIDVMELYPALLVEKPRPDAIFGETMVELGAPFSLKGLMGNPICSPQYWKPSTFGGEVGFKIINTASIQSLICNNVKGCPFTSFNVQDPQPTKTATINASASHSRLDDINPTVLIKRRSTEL

[1] = Whole Blood Assay for Thromboxane B2 Activity; assay type: cell-based; details: calcium ionophore A23187
Description: Whole Blood Assay for Thromboxane B2 Activity:
Thromboxane B2 (TXB2) activity was assayed using an ELISA to detect the TXB2 released. Various concentrations of compounds and standards were prepared by a set of serial dilutions (1:3) in a microtiter plate with ethanol. In U-bottom microtiter plates, 50 μl whole blood (green top heparin), 150 μl RPMI media (JRH Biosciences) and 5 μl compound solution were mixed and preincubated at 37° C. for fifteen minutes prior to the addition 4 μg of the calcium ionophore A23187. Any reaction between the compounds and the cells was stopped after ten minutes at 37° C. by centrifuging the cells at 2000 rpm for ten minutes at 4° C. and transferring 20 μl of the supernatant into 180 μl ELISA enzyme immuno assay buffer. The TXB2 formed was measured by standard ELISA technology (Cayman Chemical). To washed and pre-coated (goat anti-rabbit IgG H&L) microtiter plates, was added 40 μl enzyme immuno assay buffer, 10 μl diluted supernatants, 50 μl […] and 50 μl TXB2 antisera. After covered overnight incubation at room temperature. 200 μl Ellman reagent was added and incubated. The absorbance was read at 405 nm with a 650 nm reference.

human COX I = molecular target: T2, human COX I (Homo sapiens, UniProt P23219); assay: Assay for COX I activity in vitro (PGE2 ELISA, recombinant enzyme); assay type: biochemical
T2 construct: A 2.0 kb fragment containing the coding region; made in house; host or cells: SF9 insect cells (baculovirus, transfer vector pVL1393)
T2 sequence (P23219 24-599): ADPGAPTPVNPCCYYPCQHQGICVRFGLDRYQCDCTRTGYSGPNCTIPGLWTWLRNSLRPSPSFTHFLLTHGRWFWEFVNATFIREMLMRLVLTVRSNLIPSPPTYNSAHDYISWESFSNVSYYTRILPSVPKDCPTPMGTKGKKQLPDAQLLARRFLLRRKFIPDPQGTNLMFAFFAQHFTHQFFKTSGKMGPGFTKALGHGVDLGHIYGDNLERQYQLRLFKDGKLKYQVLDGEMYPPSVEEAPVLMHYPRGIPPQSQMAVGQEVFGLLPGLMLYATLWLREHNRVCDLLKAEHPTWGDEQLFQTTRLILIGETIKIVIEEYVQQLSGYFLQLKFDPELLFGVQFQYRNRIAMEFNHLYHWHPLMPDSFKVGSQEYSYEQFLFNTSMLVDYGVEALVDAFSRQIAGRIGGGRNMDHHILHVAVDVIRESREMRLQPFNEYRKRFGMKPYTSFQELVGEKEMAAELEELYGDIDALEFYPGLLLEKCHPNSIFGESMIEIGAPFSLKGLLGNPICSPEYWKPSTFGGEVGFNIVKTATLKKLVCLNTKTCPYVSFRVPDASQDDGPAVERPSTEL

human COX II = molecular target: T3, human COX II (Homo sapiens, UniProt P35354); assay: Assay for COX II activity in vitro (PGE2 ELISA, recombinant enzyme); assay type: biochemical
T3 construct: A 2.0 kb fragment containing the coding region; made in house; host or cells: SF9 insect cells (baculovirus, transfer vector pVL1393)
T3 sequence (P35354 18-604): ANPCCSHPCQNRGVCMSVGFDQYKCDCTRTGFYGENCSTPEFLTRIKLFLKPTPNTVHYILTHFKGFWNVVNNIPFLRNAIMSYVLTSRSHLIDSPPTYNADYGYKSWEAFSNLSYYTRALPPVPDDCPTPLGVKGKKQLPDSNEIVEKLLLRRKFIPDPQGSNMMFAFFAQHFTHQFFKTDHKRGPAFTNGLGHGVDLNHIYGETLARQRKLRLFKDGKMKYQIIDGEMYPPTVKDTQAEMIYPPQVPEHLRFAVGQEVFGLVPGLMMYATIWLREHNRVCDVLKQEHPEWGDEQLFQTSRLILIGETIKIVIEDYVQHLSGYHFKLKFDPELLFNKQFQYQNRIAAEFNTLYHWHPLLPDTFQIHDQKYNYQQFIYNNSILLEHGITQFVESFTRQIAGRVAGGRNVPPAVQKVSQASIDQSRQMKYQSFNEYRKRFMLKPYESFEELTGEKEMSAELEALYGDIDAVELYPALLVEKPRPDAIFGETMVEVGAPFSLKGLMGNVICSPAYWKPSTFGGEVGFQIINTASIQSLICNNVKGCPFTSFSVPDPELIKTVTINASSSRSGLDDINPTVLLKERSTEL

Murine COX I = molecular target: T4, Murine COX I (Mus musculus, UniProt P22437); assay: Assay for COX I activity in vitro (PGE2 ELISA, recombinant enzyme); assay type: biochemical; details: read-out: Murine COX I ID50
T4 construct: A 2.0 kb fragment containing the coding region; made in house; host or cells: SF9 insect cells (baculovirus, transfer vector pVL1393)
T4 sequence (P22437 27-602): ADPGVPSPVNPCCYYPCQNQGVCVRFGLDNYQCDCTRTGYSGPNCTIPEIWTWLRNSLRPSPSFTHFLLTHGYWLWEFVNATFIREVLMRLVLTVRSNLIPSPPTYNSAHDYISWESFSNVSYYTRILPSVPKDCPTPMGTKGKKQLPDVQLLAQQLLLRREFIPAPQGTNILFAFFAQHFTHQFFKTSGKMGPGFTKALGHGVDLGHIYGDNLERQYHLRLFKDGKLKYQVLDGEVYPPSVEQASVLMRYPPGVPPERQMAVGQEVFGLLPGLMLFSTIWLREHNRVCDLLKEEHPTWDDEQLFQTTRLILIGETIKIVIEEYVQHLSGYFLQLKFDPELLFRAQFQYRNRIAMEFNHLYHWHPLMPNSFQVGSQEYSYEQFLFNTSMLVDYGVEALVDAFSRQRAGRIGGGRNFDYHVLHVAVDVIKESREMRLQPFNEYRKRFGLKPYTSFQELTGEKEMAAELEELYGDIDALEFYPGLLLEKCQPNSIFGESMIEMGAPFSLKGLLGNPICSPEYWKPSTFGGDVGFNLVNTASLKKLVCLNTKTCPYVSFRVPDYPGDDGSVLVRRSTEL

Murine COX II = molecular target: T5, Murine COX II (Mus musculus, UniProt Q05769); assay: Assay for COX II activity in vitro (PGE2 ELISA, recombinant enzyme); assay type: biochemical; details: read-out: Murine COX II ID50
T5 construct: A 2.0 kb fragment containing the coding region; made in house; host or cells: SF9 insect cells (baculovirus, transfer vector pVL1393)
T5 sequence (Q05769 18-604): T1 sequence (Q05769 18-604)

[2] = Gen. Pharmac., 24, 105 (1993); cited from earlier work
[3] = Gen. Pharmac., 24, 105 (1993); cited from earlier work; remark: listed apart in the source

SMILES	IC50 [1] [µM]	IC50 (Murine COX I) [µM]	IC50 (Murine COX II) [µM]	other results
COc1ccc2cc(CC(=O)O)ccc2c1 [6-methoxy-2-napthylacetic acid]	–	–	–	selective inhibition of the COX II enzyme (COX II enzyme): selectively inhibit the COX II enzyme
CS(=O)(=O)c1ccc(-c2cscc2-c2ccc(F)cc2)cc1 [Example 1, 3-(4-Methylsulfonylphenyl)-4-(4-fluorophenyl)thiophene]	21	–	–	IC50 (human COX I): > 100 µM; IC50 (human COX II): < 0.1 µM
CS(=O)(=O)c1ccc(-c2csc(Br)c2-c2ccc(F)cc2)cc1 [Example 2, 4(4-Methylsulfonylphenyl)-3-(4-fluorophenyl)-2-bromothiophene]	0.4	3.5	–	–
CS(=O)(=O)c1ccc(-c2c(Br)sc(Br)c2-c2ccc(F)cc2)cc1 [Example 3, 4-(4-Methylsulfonylphenyl)-3-(4-fluorophenyl)-2,5-dibromothiophene]	–	–	1.5	–
COc1ccc(-c2cscc2-c2ccc(OC)cc2)cc1 [Example 4, 3,4-Bis(4-methoxyphenyl)thiophene]	< 0.1	0.3	0.8	–
CCOC(=O)c1scc(-c2ccc(S(C)(=O)=O)cc2)c1-c1ccc(F)cc1 [Example 5, Ethyl[4-(4-methylsulfonylphenyl)-3-(4-fluorophenyl)thien-2-yl]carboxylate]	–	> 3	< 0.1	–
COc1ccc(-c2cscc2-c2ccc(S(C)(=O)=O)cc2)cc1 [Example 6, 3-(4-Methylsulfonylphenyl)-4-(4-methoxyphenyl)thiophene]	–	< 0.3	< 0.1	–
COc1ccc(-c2c(-c3ccc(S(C)(=O)=O)cc3)csc2Br)cc1 [Example 7, 3-(4-Methylsulfonylphenyl)-4-(4-methoxyphenyl)-5-bromothiophene]	< 0.1	< 0.1	< 0.1	–
CCOC(=O)c1sc(C(=O)O)c(-c2ccc(F)cc2)c1-c1ccc(S(C)(=O)=O)cc1 [Example 8, 2-Ethoxycarbonyl-4-(4-fluorophenyl)-3-(4-methanesulfonylphenyl)-thienyl-5-carboxylic acid]	–	> 100	5.5	–
CS(=O)(=O)c1ccc(-c2c(C(=O)O)sc(C(=O)O)c2-c2ccc(F)cc2)cc1 [Example 9, 4-(4-Fluorophenyl)-3-(4-methanesulfonylphenyl)thienyl-2,5-dicarboxylic acid]	–	> 100	4.7	–
CS(=O)(=O)c1ccc(-c2cscc2-c2ccccc2)cc1 [Example 10, 3-(4-Methanesulfonylphenyl)-4-phenyl-thiophene]	7	> 10	< 0.1	–
Cc1ccc(-c2cscc2-c2ccc(S(C)(=O)=O)cc2)cc1 [Example 11, 3-(4-Methanesulfonylphenyl)-4-(4-methylphenyl)thiophene]	7	> 100	< 0.1	–
NS(=O)(=O)c1ccc(-c2cscc2-c2ccc(F)cc2)cc1 [Example 12, 4-[4-(4-Fluorophenyl)thien-3-yl]benzenesulfonamide]	–	–	–	melting point: 194 to 195 °C
CS(=O)(=O)c1ccc(-c2cocc2-c2ccc(F)cc2)cc1 [Example 13, 3-(4-Fluorophenyl)-4-(methylsulfonylphenyl)furan]	–	–	–	IC50 (human COX I; human COX I enzyme (footnote *), read-out: COX I ID50): > 100 µM; IC50 (human COX II; human COX II enzyme (footnote *), read-out: COX II ID50): 1.9 µM; melting point: 160 to 161 °C
CS(=O)(=O)c1ccc(-c2cscc2-c2ccc(F)nc2)cc1 [Example 14]	27	> 10	0.2	melting point: 190 to 191 °C (dec.)
Cc1cc(F)ccc1-c1cscc1-c1ccc(S(C)(=O)=O)cc1 [Example 15, 3-(4-Methylsulfonylphenyl)-4-(2-methyl-4-fluorophenyl)thiophene]	28	8.5	–	melting point: 158 to 160 °C
CS(=O)(=O)Nc1ccc([N+](=O)[O-])cc1OC1CCCCC1 [N-(2-cyclohexyloxy-4-nitrophenyl)methanesulfonamide]	–	–	–	antiinflammatory activity [2]: antiinflammatory; gastric side effects [3]: lacks gastric side effects

Source: patent publication US20030013744A1, “3,4-diaryl thiophenes and analogs thereof having use as anti-inflammatory agents” (G.D. Searle & Co., priority 1993, published 2003)
